{"source": "paper PMC2745115", "about": "(Bioorganic & medicinal chemistry letters, 2008)", "key": {"[1]": {"experiment": "Hydrolysis stability of esters by HPLC", "format": "physicochemical", "conditions": "pH 7.4, 25 mM phosphate buffer, 37 C, after 24 hours"}, "[2]": {"conditions": "rhesus monkeys; cited from earlier work"}, "[3]": {"conditions": "humans; cited from earlier work"}, "[4]": {"target": "μ opioid receptor (Homo sapiens, UniProt P35372)", "sequence (P35372 whole entry, species assumed)": "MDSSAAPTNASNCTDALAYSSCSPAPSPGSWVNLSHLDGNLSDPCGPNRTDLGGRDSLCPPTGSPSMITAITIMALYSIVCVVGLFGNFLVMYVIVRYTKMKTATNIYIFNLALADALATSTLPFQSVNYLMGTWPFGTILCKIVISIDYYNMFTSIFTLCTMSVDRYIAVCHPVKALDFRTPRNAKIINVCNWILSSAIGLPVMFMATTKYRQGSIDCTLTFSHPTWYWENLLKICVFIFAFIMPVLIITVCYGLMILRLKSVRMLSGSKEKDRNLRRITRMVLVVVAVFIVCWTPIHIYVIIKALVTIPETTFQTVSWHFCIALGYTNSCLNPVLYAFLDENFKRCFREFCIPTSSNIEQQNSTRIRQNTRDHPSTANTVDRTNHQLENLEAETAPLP", "experiment": "Inhibition of [3H]DAMGO binding to CHO cell membranes", "conditions": "relative to 4d"}, "[5]": {"target": "κ opioid receptor (Homo sapiens, UniProt P41145)", "sequence (P41145 whole entry)": "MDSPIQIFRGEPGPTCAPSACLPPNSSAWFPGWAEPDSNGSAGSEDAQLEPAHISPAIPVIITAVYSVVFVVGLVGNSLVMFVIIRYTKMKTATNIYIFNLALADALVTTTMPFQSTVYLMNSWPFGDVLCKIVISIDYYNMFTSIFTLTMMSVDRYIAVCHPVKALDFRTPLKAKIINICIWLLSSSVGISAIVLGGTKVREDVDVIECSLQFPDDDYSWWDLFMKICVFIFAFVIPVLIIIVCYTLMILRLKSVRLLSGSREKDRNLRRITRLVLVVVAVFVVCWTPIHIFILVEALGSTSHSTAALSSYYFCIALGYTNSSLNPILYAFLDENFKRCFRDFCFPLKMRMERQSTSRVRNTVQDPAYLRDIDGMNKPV", "experiment": "Inhibition of [3H]U69,593 binding to CHO cell membranes", "conditions": "relative to butorphanol"}}, "data": [{"smiles": "Cl.O=C(Cc1ccccc1)Oc1ccc2c(c1)[C@@]13CCCC[C@@]1(O)[C@@H](C2)N(CC1CCC1)CC3", "note": "[4b]", "values": [{"measurement": "hydrolysis of the esters", "setting": "[1]", "value": "No hydrolysis"}]}, {"smiles": "Oc1ccc2c(c1)[C@@]13CCCC[C@@]1(O)[C@@H](C2)N(CC1CCC1)CC3", "note": "[3b, butorphanol]", "values": [{"measurement": "cocaine self-administration", "setting": "[2]", "value": "decrease cocaine self-administration"}, {"measurement": "food-maintained responding", "setting": "[2]", "value": "without producing a significant change"}, {"measurement": "analgesic potency, times that of meperdine", "setting": "[3]", "value": "30 – 40 times"}, {"measurement": "analgesic potency, times that of morphine", "setting": "[3]", "value": "4 – 8 times"}, {"measurement": "analgesic potency, times that of pentazocine", "setting": "[3]", "value": "16 – 24 times"}]}, {"smiles": "Cl.O[C@@]12CCCC[C@@]13CCN(CC1CCC1)[C@@H]2Cc1ccc(OCCc2ccccc2)cc13", "note": "[5d]", "values": [{"measurement": "less binding affinity at the μ opioid receptor than 4d", "setting": "[4]", "value": 164, "unit": "fold"}]}, {"smiles": "Cc1ccc(C(C)C(=O)Oc2ccc3c(c2)[C@@]24CCCC[C@@]2(O)[C@@H](C3)N(CC2CCC2)CC4)cc1.Cl", "note": "(stereo partly drawn) [4c]", "values": [{"measurement": "hydrolysis of the esters", "setting": "[1]", "value": "No hydrolysis"}]}, {"smiles": "Cl.O=C(COc1ccccc1)Oc1ccc2c(c1)[C@@]13CCCC[C@@]1(O)[C@@H](C2)N(CC1CCC1)CC3", "note": "[4d, (-)-N-cyclobutylmethylmorphinan-3-yl-14-ol phenoxyacetate]", "values": [{"measurement": "more potent binder at the κ receptor than butorphanol", "setting": "[5]", "value": "four-fold"}]}]}
